experiment: Inhibition of Saccharomyces cerevisiae alpha-glucosidase using p-nitrophenyl alpha-D-glucoside as substrate incubated for 0.5 hrs followed by substrate addition and measured after 1 hr by colorimetric assay

Row | IC50 | Compound
1 | 24.7 µM | COc1cc(/C=C/C(=O)NCCc2ccc(O)cc2)ccc1O [N-TRANS-FERULOYL TYRAMINE]
2 | 73.7 µM | C[C@H]1O[C@H](O[C@H]2[C@H](O)[C@@H](O)[C@@H](O[C@H]3[C@H](O)[C@@H](O)C(O)O[C@@H]3CO)O[C@@H]2CO)[C@H](O)[C@@H](O)[C@@H]1N[C@H]1C=C(CO)[C@@H](O)[C@H](O)[C@H]1O (some centres undefined) [ACARBOSE]
3 | 256 µM | COc1ccc([C@@H]2CC(=O)c3c(O)cc(O)c(O)c3O2)cc1
4 | 4.5 µM | O=C(/C=C/c1ccc(O)cc1)NCCc1ccc(O)cc1 [N-P-COUMAROYL TYRAMINE]

From ChEMBL document CHEMBL4414635, “Dasymaschalolactams A-E, Aristolactams from a Twig Extract of Dasymaschalon dasymaschalum” (J Nat Prod, 2019)
